According to EP2589390B1, “PHARMACEUTICAL COMPOSITION FOR TREATING CENTRAL AND PERIPHERAL NERVOUS SYSTEM DISEASES OF VASCULAR, TRAUMATIC, TOXIC, HYPOXIC AND […]” (Aktsionernoe Obschestvo "Pharm-Sintez", priority 2010, dated 2012):

Test system: mice bone marrow polychromatophils
Details: positive control
[1] = 20 mg/kg intraperitoneally in male mice

From the text: The Study purpose is to reveal and quantitatively assess the cytogenetic activity (mutagenicity) of the pharmacologic drugs in the mammalian bone marrow polychromatophils. The method's base is the micronuclei cells microscopic registration.
The experimental used the male and female F1(CBAx C57BI6/J) hybrid mice, two-month age, 18 to 20 grams body weight. Every group included 6 animals. The animals were kept under the 12-hour light regime, with freely available water and food. The single and five fold administration protein-polypeptide complex mutagenicity assessment animal experiments were in compliance with the official protocols. Three experimental series with relevant controls were performed: therapeutic dosage: males, single administration; subtoxic dose: males, single administration; and therapeutic dosage: males and females, five fold administration.
The protein-polypeptide complex mutagenicity assessment dose was defined on the basis of the maximum recommended daily therapeutic dose (TD) for human. The 2 ml at 0.1 mg/ml concentration IV administration is recommended. The therapeutic dose for human, including infant, may be 0.05 mg/kg/day. To calculate the mice experimental dose, the conversion factor is recommended to take into account the human and murine body surface area to body mass ratio. In our study it was 8.33.
For the subtoxic dose the maximum possible experimental one was used, 10 mg/kg, as the substance concentration was 0.1 mg/ml; the conventional total substance administered to mice is 0.1 ml per 10 g body weight.
Seven groups of animals, four experimental and three control ones, were formed. […]
The bone marrow cells preparation for the micronuclei account were made in conventional manner, in accordance with the "Micronuclear Test Environmental Factors Mutagenicity Assessment in Mammalia Organs Cells" Guidelines. […] 2000 polychromatophils per animal were then analyzed with coded preparations. At the 500 erythrocytes count the polychromatophil to normochromatic erythrocytes ratio was determined. […]

O=P1(N(CCCl)CCCl)NCCCO1 (stereo not drawn) [cyclophosphamide]
higher micronuclei cells vs. control [1]: 19.6 fold
micronuclei cells [1]: 62.1 ‰
polychromatophil to normochromatic erythrocytes ratio (20 mg/kg intraperitoneally, P < 0.005 vs control): shift to the latter ones
